Reference: PMC12056667 (Chemical Science, 2025)
Where two headings read alike, the source gives them in different places.

Tests used:
Tet(X4) [1] = molecular target: T1, Tet(X4) (Escherichia coli, UniProt A0A3T0V9Y5); test: biochemical
Description: We then tested the binding of reported type 1 TDase inhibitors to Tet(X4) (Fig. 3f, ESI Fig. S17 ^†).[33,38,39] […] We also developed a complementary endpoint activity assay where the turnover of tigecycline by Tet(X4) in a 96-well plate was quenched by addition of 1%v/v formic acid and analysed chromatographically. The peak integrals of tigecycline and its hydroxylated degradation product at 254 nm following UPLC analysis were measured to determine turnover (Fig. 5a).
[…] A 3-fold, 10-point dilution series of the substrates and inhibitors was made in DMSO with a top concentration of 10 mM, unless otherwise stated, and transferred to the enzyme solution using a CyBi-Well liquid-handling robot (CyBio), 1 μL per well. On each plate, a column of no enzyme negative controls and no inhibitor (DMSO only) positive controls were included. The plate was incubated at 30 °C for 15 min. A solution containing 100 mM TAPS (pH 8.5), 40 μM tigecycline and 200 μM NADPH was then dispensed, with 49 μL per well. The plate was incubated at 30 °C for 20 min at 600 rpm. 10 μL of 10%v/v formic acid solution was then dispensed into all wells. Samples were analysed using an ACQUITY H-Class PLUS UPLC instrument (Waters) equipped with a pre-equilibrated ACQUITY BEH C18 column ([…], […], Waters) using a gradient of 1–50%v/v acetonitrile with 0.1%v/v formic acid in water with 0.1%v/v formic acid over 1.83 minutes at a flow rate of 0.5 mL min^−1. Instrument control and data processing were performed using MassLynx V4.1 software. The peaks representing tigecycline and 11a-hydroxy-tigecycline were integrated, used to calculate % conversion and then normalised between positive and negative controls. The normalised % response was plotted as a function of log10[Inhibitor], and the IC50 determined as described above.

Tet(X4) [2] = molecular target: T1, Tet(X4); test: Absorbance activity assay (tigecycline turnover, A400); assay type: biochemical; conditions: for IC50: 25 μM tigecycline, 50 nM Tet(X4), 250 μM NADPH, 5 mM MgCl2, 1 μM FAD, 100 mM TAPS pH 8.5, read-out: IC50, Absorbance assay
Source text: We then tested the binding of reported type 1 TDase inhibitors to Tet(X4) (Fig. 3f, ESI Fig. S17 ^†).[33,38,39] […] These compounds gave similar apparent IC50^app values, in accord with trends in IC50 measurements performed by Markley et al.[33] […] We also developed a complementary endpoint activity assay where the turnover of tigecycline by Tet(X4) in a 96-well plate was quenched by addition of 1%v/v formic acid and analysed chromatographically. The peak integrals of tigecycline and its hydroxylated degradation product at 254 nm following UPLC analysis were measured to determine turnover (Fig. 5a). As this method separates components by chromatography, it enables IC50 measurements independent of potential interference from UV-active inhibitors (Fig. 5b). […] The apparent synergy of AZT with tetracyclines against whole cells expressing Tet(X4)[40] is therefore interesting and may derive from the proposed ability of AZT to interfere with DNA synthesis in bacteria,[40,53] or other unidentified mechanisms. […] Note, however, that plumbagin and 2-MNQ are naphthoquinones, which are well-characterised redox-active pan-assay interference (PAINS) moieties.[54]
233 Absorbance Activity Assays
234 A solution containing 100 mM TAPS (pH 8.5), 2 µM FAD, 10 mM MgCl2 and 100 nM Tet(X4) was
235 dispensed into a 384 well µClear plate (Greiner Bio-One), 25 µL per well, using a microplate reagent
236 dispenser. A 3-fold, 10-point dilution series of the substrates and inhibitors was made in DMSO with
237 the highest concentration of 50 mM, unless otherwise stated, and transferred to the enzyme solution in
238 technical quadruplicate using a CyBi-Well (CyBio) liquid-handling robot (1 µL per well). On each plate,
239 a column of no enzyme negative controls and no inhibitor (DMSO only) positive controls were
240 included. The plate was briefly centrifuged (1000 rpm), then incubated (ambient temperature,15 min).
241 A solution containing 100 mM TAPS (pH 8.5), 50 µM tigecycline and 500 µM NADPH was then
242 dispensed, with 25 µL per well. The plate was briefly centrifuged (1000 rpm), then transferred to a
243 CLARIOstar Plus Microplate reader. The absorbance was monitored at wavelength […] over the
244 course of 2 hours (23 flashes / cycle, 180 s cycle time, 41 data points, 25 ° C). The initial rate was
245 calculated by measuring the rate of change of A400 during the initial linear regime. Initial rates were
246 normalised between positive and negative controls. The normalised % response was plotted as a
247 function of log10([Inhibitor]) in molar units, and the IC50 was determined as above. […]

Tet(X4) [3] = molecular target: T1, Tet(X4); test: FP competitive displacement of probe 6; assay type: binding; conditions: for IC50: 25 nM 6, 40 nM Tet(X4), 5 mM MgCl2, 1 μM FAD, 100 mM Tris pH 7.0, 0.01% Triton X-100; for displacement of probe 6 / competitive binding (in words): up to a maximum concentration of 100 μM
Description: A 2× solution containing 80 nM Tet(X4), 2 μM FAD and 10 mM MgCl2 in the assay buffer was dispensed into the first 22 columns of a 384-well black, non-binding microtiter plate (Greiner Bio-One), 12.5 μL per well, using a microplate reagent dispenser. A solution of 2 μM FAD and 10 mM MgCl2 in the assay buffer was dispensed into the remaining columns to serve as a no enzyme control. A 3-fold, 10-point dilution series of substrates and inhibitors was made in DMSO in a V-bottom 96-well plate (Greiner Bio-One) with a highest concentration of 5 mM or 0.5 mM. Into one column was added DMSO with no inhibitor or substrate, to serve as a positive control. Tigecycline was included as a reference on every plate to ensure reproducibility. 0.5 μL of each dilution was transferred in quadruplicate to the 384-well plate containing enzyme solution using a CyBi-Well liquid-handling robot (CyBio). A solution of 50 nM 6 in the assay buffer was then dispensed, with 12.5 μL per well. The plate was briefly centrifuged (1000 rpm), then incubated at ambient temperature for 30 min prior to measuring the FP. Data points were normalised between the positive and negative controls. Normalised % response was plotted as a function of log10([Inhibitor]), and the IC50^app was determined by fitting the data to the equation: Y = Bottom + (top-bottom)/(1 + 10^Log(IC50) − X) × HillSlope in GraphPad Prism 9.4.1, where Y = % response and X = log10([Inhibitor]). Wells with unusual fluorescence intensities were manually identified and removed from the analysis. […]

[4] = test system: E. coli TOP10 containing plasmid pBAD-TOPO-Tet(X4); test: Broth microdilution MIC and checkerboard assay; assay type: cell-based, Escherichia coli; conditions: for MIC: Escherichia coli; for Combination (antibiotic/inhibitor) MIC: inhibitor: inhibitor in combination with tigecycline; for Combination (antibiotic/inhibitor) MIC: inhibitor / Combination (antibiotic/inhibitor) MIC: antibiotic: lowest FICI; for Combination (antibiotic/inhibitor) MIC: antibiotic: tigecycline in combination with the inhibitor; for FICI / Outcome: with tigecycline
Source text: Tet(X4) was sub-cloned from the Tet(X4) pET28b-(+) expression vector via TOPO cloning. The insert was amplified using the taq polymerase with the forward primer 5′- […]-3′ and the reverse primer 5′- […]-3’. Following PCR purification (Thermo Fisher Scientific), the A-tailed PCR product was ligated into the pBAD-TOPO vector using a TOPO cloning kit (Invitrogen) according to the manufacturer's protocol. Following amplification in E. coli NEB5α cells (NEBiolabs), the fidelity of the insert was confirmed by Sanger sequencing (Eurofins). For microbiological experiments, E. coli TOP10 cells were used as the recipient strain. Cells were plated on Mueller-Hinton agar (MHA) plates containing ampicillin at 100 μg mL^−1. The introduction of pBAD-TOPO-Tet(X4) was confirmed by colony PCR. Strains were stored in a freezer at −80 °C in cryopreservation beads.
MIC tests and checkerboard assays were performed in U-bottom, 96-well microtiter plates using a modified broth microdilution protocol following CLSI guidelines. Cation-adjusted Mueller-Hinton Broth (CAMHB) was prepared fresh on the day of testing.[74] […] Bacterial colonies were selected from an overnight culture on MHA plates (supplemented with 0.2%w/vL-arabinose for E. coli TOP10 containing pBAD-TOPO-Tet(X4)) and were suspended in 0.9% saline solution to achieve a 0.5 McFarland standard. A 100 μL aliquot of this suspension was then diluted into 9.9 mL of CAMHB to yield approximately 1.5 × 10^6 cfu mL^−1. 50 μL of the suspension was then added to each well of a microtiter plates. Plates were incubated at 37 °C for 18 h. At least 2 replicates were conducted for each combination. E. coli TOP10 + pBAD-TOPO-Tet(X4) cells were grown in the absence and presence of 0.2%w/vL-arabinose. Analysis of the MIC and checkerboard results were carried out by visual inspection of growth, with and without resazurin dye, an oxidation–reduction indicator.[75] As a measure of synergy, fractional inhibitory concentration index (FICI) was calculated as FICA + FICB, where FICA and FICB are the MICcombination/MICalone for each agent, respectively.[76] Results were interpreted as follows: synergistic (<0.5), indifferent (1.0–4.0) or antagonistic (>4.0).[64] In cases where the MIC exceeded or was below the measured range, the borderline value was taken to calculate the FIC index.

[5] = 20 μM tigecycline, 50 nM Tet(X4), 100 μM NADPH, 5 mM MgCl2, 1 μM FAD, 100 mM TAPS pH 8.5, read-out: IC50, UPLC assay
[6] = IC50app, Tet(X4) (Polarization)

COC1=CC(=O)c2ccccc2C1=O [2-Methoxy-1,4-naphthoquinone]
IC50 (Tet(X4) [1]; [5]): > 100 µM | inhibition in the UPLC assay (in words) (Tet(X4) [1]; AZT up to 100 μM): weak | IC50 (Tet(X4) [2]): 421 ± 50 µM | inhibition in the absorbance assay (in words) (Tet(X4) [2]; AZT up to 1 mM): weak | IC50 (Tet(X4) [3]; IC50app, FP assay): > 100 µM | displacement of probe 6 / competitive binding (in words) (Tet(X4) [3]): minimal competitive binding

Cc1c2c(c(O)c3c(O)c(Br)ccc13)C(=O)[C@@]1(O)C(=O)C(C(N)=O)=C(O)[C@@H](N(C)C)[C@@H]1C2 [9-Bromo-anhydrotetracycline]
IC50 (Tet(X4) [1]; [5]): 2.7 ± 0.5 µM | IC50 (Tet(X4) [2]): 4.5 ± 0.6 µM | IC50 (Tet(X4) [3]; read-out: IC50app, FP assay): 0.0404 ± 0.0105 µM | displacement of probe 6 / competitive binding (in words) (Tet(X4) [3]): clear dose-dependent displacement

CN(C)CCCN1c2ccccc2Sc2ccc(Cl)cc21 [Chlorpromazine]
IC50 (Tet(X4) [1]; [5]): 110 ± 19 µM | IC50 (Tet(X4) [3]; [6]): > 100 µM

O=c1c2ccccc2[se]n1-c1ccccc1 [Ebselen]
IC50 (Tet(X4) [1]; [5]): 4.7 ± 1.5 µM | IC50 (Tet(X4) [3]; [6]): 40.9 ± 11.4 µM

Cn1cc(C2=C(c3cn(C4CCN(Cc5ccccn5)CC4)c4ccccc34)C(=O)NC2=O)c2ccccc21 [Enzastaurin]
IC50 (Tet(X4) [1]; [5]): > 100 µM | IC50 (Tet(X4) [3]; [6]): 27.8 ± 1.5 µM

COc1ccc2c(c1)N(C[C@H](C)CN(C)C)c1ccccc1S2 [Levomepromazine]
IC50 (Tet(X4) [1]; [5]): > 100 µM | IC50 (Tet(X4) [3]; [6]): > 100 µM

C=CC(=O)Nc1cccc(Oc2nc(Nc3ccc(N4CCN(C)CC4)cc3)nc3ccsc23)c1 [Olmutinib]
IC50 (Tet(X4) [1]; [5]): > 100 µM | IC50 (Tet(X4) [3]; [6]): 17.2 ± 3.4 µM

CC(CN(C)C)CN1c2ccccc2S(=O)(=O)c2ccccc21 (stereo not shown) [Oxomemazine]
IC50 (Tet(X4) [1]; [5]): > 100 µM | IC50 (Tet(X4) [3]; [6]): > 100 µM

c1ccc2c(c1)Nc1ccccc1S2 [Phenothiazine]
IC50 (Tet(X4) [1]; [5]): 128 ± 13 µM | IC50 (Tet(X4) [3]; [6]): > 100 µM

CCCCC1C(=O)N(c2ccccc2)N(c2ccccc2)C1=O [Phenylbutazone]
IC50 (Tet(X4) [1]; [5]): > 100 µM | IC50 (Tet(X4) [3]; [6]): > 100 µM

CN(C)CCCN1c2ccccc2Sc2ccccc21 [Promazine]
IC50 (Tet(X4) [1]; [5]): > 100 µM | IC50 (Tet(X4) [3]; [6]): > 100 µM

CCN(CC)CCNC(=O)c1c(C)[nH]c(/C=C2\C(=O)Nc3ccc(F)cc32)c1C [Sunitinib]
IC50 (Tet(X4) [1]; IC50, UPLC assay, 20 μM tigecycline, 50 nM Tet(X4), 100 μM NADPH, 5 mM MgCl2, 1 μM FAD, 100 mM TAPS pH 8.5): > 100 µM | IC50 (Tet(X4) [3]; [6]): 45.6 ± 4 µM

COc1cc(C)c2c(Oc3cccc(C(F)(F)F)c3)c(OC)cc(NC(C)CCCN)c2n1 (stereo not shown) [Tafenoquine]
IC50 (Tet(X4) [1]; [5]): 76 ± 2.4 µM | IC50 (Tet(X4) [3]; [6]): 94.9 ± 64.8 µM | MIC ([4]; read-out: Tet(X) Inhibitor MIC, alone, without L-arabinose induction): 16 mg/L | MIC ([4]; read-out: Tet(X) inhibitor MIC, alone, induced with 0.2%w/v L-arabinose): 16 to 64 mg/L | Tet(X) inhibitor MIC ([4]; alone, induced with 0.2%w/v L-arabinose): 16 mg/L | reduction of the tigecycline MIC ([4]; at high concentrations of inhibitor, 0.2%w/v L-arabinose): 2–4 fold | Combination (antibiotic/inhibitor) MIC: inhibitor ([4]; 0.2%w/v L-arabinose): 4 mg/L | Combination (antibiotic/inhibitor) MIC: inhibitor ([4]; without L-arabinose): 16 mg/L | Combination (antibiotic/inhibitor) MIC: antibiotic ([4]; 0.2%w/v L-arabinose): 2 mg/L | Combination (antibiotic/inhibitor) MIC: antibiotic ([4]; without L-arabinose): 0.25 mg/L | FICI ([4]; 0.2%w/v L-arabinose): 0.8 | Outcome ([4]; 0.2%w/v L-arabinose): Indifferent (indifferent (0.5–4.0)) | FICI ([4]; without L-arabinose): 2 | Outcome ([4]; without L-arabinose): indifferent (indifferent (0.5-4.0))

CN(C)CCCN1c2ccccc2Sc2ccc(C(F)(F)F)cc21 [Triflupromazine]
IC50 (Tet(X4) [1]; IC50, UPLC assay): 102 ± 29 µM | IC50 (Tet(X4) [3]; [6]): > 100 µM
